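Compound exposure: 48 hours, 5 concentrations, 96-well plates. TGI is the concentration that stops growth completely.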
Assays:
Assay in all cases: NCI tumour cell line growth inhibition, 48 h
HOP-92 NSCLC = test system: HOP-92 NSCLC
PC-3 prostate = test system: PC-3 prostate
OVCAR-4 ovarian = test system: OVCAR-4 ovarian
UACC-62 melanoma = test system: UACC-62 melanoma
NCI-H522 lung = test system: NCI-H522 lung
EKVX NSCLC = test system: EKVX NSCLC
MALME-3M melanoma = test system: MALME-3M melanoma
NCI/ADR-RES ovarian = test system: NCI/ADR-RES ovarian
SN12C renal = test system: SN12C renal
T-47D breast = test system: T-47D breast
M14 melanoma = test system: M14 melanoma
SW-620 colon = test system: SW-620 colon
SK-OV-3 ovarian = test system: SK-OV-3 ovarian
CCRF-CEM leukemia = test system: CCRF-CEM leukemia
LOX IMVI melanoma = test system: LOX IMVI melanoma
SK-MEL-5 melanoma = test system: SK-MEL-5 melanoma
SK-MEL-2 melanoma = test system: SK-MEL-2 melanoma
K-562 leukemia = test system: K-562 leukemia
RXF 393 renal = test system: RXF 393 renal

| Structure (SMILES) | TGI (HOP-92 NSCLC) | TGI (PC-3 prostate) | TGI (OVCAR-4 ovarian) | TGI (UACC-62 melanoma) | TGI (NCI-H522 lung) | TGI (EKVX NSCLC) | TGI (MALME-3M melanoma) | TGI (NCI/ADR-RES ovarian) | TGI (SN12C renal) | TGI (T-47D breast) | TGI (M14 melanoma) | TGI (SW-620 colon) | TGI (SK-OV-3 ovarian) | TGI (CCRF-CEM leukemia) | TGI (LOX IMVI melanoma) | TGI (SK-MEL-5 melanoma) | TGI (SK-MEL-2 melanoma) | TGI (K-562 leukemia) | TGI (RXF 393 renal) |
| --- | --- | --- | --- | --- | --- | --- | --- | --- | --- | --- | --- | --- | --- | --- | --- | --- | --- | --- | --- |
| O=C(/C=C/c1cccs1)c1ccc(C(=O)/C=C/c2cccs2)cc1 | > 100 µM | > 100 µM | > 100 µM | > 100 µM | > 100 µM | > 100 µM | > 100 µM | > 100 µM | > 100 µM | > 100 µM | > 100 µM | > 100 µM | > 100 µM | – | – | – | – | – | – |
| Nc1ccc(C(=O)NN2C(=O)C(Cl)C2c2ccccc2O)cc1 (centres undefined) | > 100 µM | – | > 100 µM | > 100 µM | > 100 µM | > 100 µM | > 100 µM | – | > 100 µM | – | > 100 µM | > 100 µM | > 100 µM | > 100 µM | > 100 µM | > 100 µM | > 100 µM | > 100 µM | – |
| O=C1c2cccnc2C(=O)c2c1nc1ccccc1c2-c1cncc(-c2c3c(nc4ccccc24)C(=O)c2cccnc2C3=O)c1 | 5.93 µM | 11 µM | 1.91 µM | 1.09 µM | 0.784 µM | 1.73 µM | 1.52 µM | 2.1 µM | 0.613 µM | 2.91 µM | 0.576 µM | 0.906 µM | 2.1 µM | 2.08 µM | 0.449 µM | 0.52 µM | 4.1 µM | > 24.8 µM | 5.48 µM |
| O=S1c2ccc(Cl)cc2CC(SSC2Cc3cc(Cl)ccc3S(=O)c3ccccc32)c2ccccc21 (centres undefined) | > 100 µM | – | > 100 µM | > 100 µM | > 100 µM | > 100 µM | > 100 µM | – | > 100 µM | – | > 100 µM | > 100 µM | > 100 µM | > 100 µM | > 100 µM | > 100 µM | > 100 µM | > 100 µM | > 100 µM |
| CN(CCO)c1nc2c(c(=O)[nH]1)CNCC2 | > 100 µM | – | > 100 µM | > 100 µM | > 100 µM | > 100 µM | > 100 µM | – | > 100 µM | – | > 100 µM | > 100 µM | > 100 µM | > 100 µM | > 100 µM | > 100 µM | > 100 µM | > 100 µM | > 100 µM |
| COC(=O)c1cc(C#N)[nH]c1-c1cccs1 | > 100 µM | > 100 µM | > 100 µM | > 100 µM | > 100 µM | > 100 µM | – | > 100 µM | > 100 µM | > 100 µM | > 100 µM | > 100 µM | > 100 µM | > 100 µM | – | – | – | > 100 µM | 86.1 µM |

Reference: PubChem BioAssay (NCI)
